Laboratory results: patent US8389573B2, “Glycyrrhetinic acid derivatives” (Wellington Laboratories Inc., priority 2006, dated 2013)

Key:
[1] = tested on: PPARγ; assay: PPARγ-GAL4/pGAL4 transfection and luciferase assay in SW480 cells; assay type: cell-based
Experimental: (§1) The Gal4 reporter containing 5× Gal4 response elements (pGal4) was kindly provided by Dr. Marty Mayo (University of North Carolina, Chapel Hill, N.C.). Gal4 DBD-PPARγ construct (gPPARγ) was a gift of Dr. Jennifer L. Oberfield (GlaxoSmithKline Research and Development, Research Triangle Park, N.C.). PPRE3-luc construct contains three tandem PPREs with a minimal TATA sequence in pGL2.
(§2) Colon Cancer cell lines SW480 and HT29 (1×10^5 cells/well) were plated in 12-well plates in DMEM/Ham's F-12 media supplemented with 2.5% charcoal-stripped FBS. After 16 h, various amounts of DNA [i.e., Gal4Luc (0.4 μg), β-Gal (0.04 μg), Gal4PPAR and PPRE3-Luc (0.04 μg)] were transfected using LipofectAMINE™ reagent (Invitrogen) following the manufacturer's protocol. Five hours after transfection, the transfection mix was replaced with complete media containing either vehicle (DMSO) or the indicated ligand for 20 to 22 h. Cells were then lysed with 100 μl of 1× reporter lysis buffer, and 30 μl of cell extract was used for luciferase and […] assays. A LumiCount™ luminometer (PerkinElmer Life and Analytical Sciences) was used to quantitate luciferase and β-Gal activities, and the luciferase activities were normalized to β-Gal activity. Results are expressed as means±S.E. for at least three replicate determinations for each treatment group

[2] = tested on: SW480 cells; assay: Western blot analysis in SW480 cells; assay type: cell-based, human
Experimental: SW-480 and HT-29 (3×10^5) cells were seeded in six-well plates in DMEM/Ham's F-12 media containing 2.5% charcoal-stripped FBS for 24 h and then treated with either the vehicle (DMSO) or the indicated compounds. Whole-cell lysates were obtained using high-salt buffer [50 mM HEPES, 500 mM NaCl, 1.5 mM MgCl2, 1 mM EGTA, 10% glycerol, and 1% Triton X-100, pH 7.5, and 5 μl/ml Protease Inhibitor Cocktail (Sigma-Aldrich)]. Protein samples were incubated at 100° C. for 2 min, separated on 10% SDS-PAGE at 120 V for 3 to 4 h in 1× running buffer (25 mM Tris-base, 192 mM glycine, and 0.1% SDS, pH 8.3), and transferred to polyvinylidene difluoride membrane (PVDF; Bio-Rad, Hercules, Calif.) at […] for 16 h at 4° C. in 1× transfer buffer (48 mM Tris-HCl, 39 mM glycine, and 0.025% SDS). The PVDF membrane was blocked in 5% TBST-Blotto (10 mM Tris-HCl, 150 mM NaCl, pH 8.0, 0.05% Triton X-100, and 5% nonfat dry milk) with gentle shaking for 30 min and was incubated in fresh 5% TBST-Blotto with 1:1000 (for caveolin-1, p27, p21, cyclin D1, Grp78), 1:500 (for KLF4, NAG-1), 1:250 (for PARP), and 1:5000 (for β-actin) primary antibody overnight with gentle shaking at 4° C. After washing with TBST for 10 min, the PVDF membrane was incubated with secondary antibody (1:5000) in 5% TBST-Blotto for 90 min. The membrane was washed with TBST for 10 min, incubated with 10 ml of chemiluminescence substrate (PerkinElmer) for 1.0 min, and exposed to Kodak X-OMAT AR autoradiography film (Eastman Kodak, Rochester, N.Y.).

[3] = tested on: AR mRNA; assay: Real-time PCR of AR mRNA in LNCaP cells; assay type: cell-based, human
Experimental: Real-Time PCR: Total RNA was isolated using the RNeasy Protect Mini kit (QIAGEN, Valencia, Calif.) according to the manufacturer's protocol. RNA was eluted with 30 μl of RNasefree water and stored at −80° C. RNA was reverse transcribed using Superscript II reverse transcriptase (Invitrogen) according to the manufacturer's protocol. cDNA was prepared from the LNCaP cell line using a combination of oligodeoxythymidylic acid and dNTP mix (Applied Biosystems, Foster City, Calif.) and Superscript II (Invitrogen). Each PCR was carried out in triplicate in a 25-μl volume using SYBR Green Master mix (Applied Biosystems) for 15 min at 95° C. for initial denaturing, followed by 40 cycles of 95° C. for 30 s and 60° C. for 1 min in the ABI Prism 7700 sequence detection system (Applied Biosystems). The ABI Dissociation Curves software was used after a brief thermal protocol (95° C. 15 s and 60° C. 20 s, followed by a slow ramp to 95° C.) to control for multiple species in each PCR amplification. The comparative CT method was used for relative quantitation of samples. Values for each gene were normalized to expression levels of TATA-binding protein. Primers were purchased from Integrated DNA Technologies (Coralville, Iowa). The sequences of the primers used for reverse transcription-PCR were as follows: AR forward, 5′-GTA CCC TGG CGG CAT GGT-3′ [SEQ ID NO: 1] and AR reverse, 5′-CCCATTTCGCTTTTGACACA-3′ [SEQ ID NO: 2]; PSA forward, 5′-GCATTGAACCAGAGGAGTTCTTG-3′ [SEQ ID NO: 3] and PSA reverse, 5′-TTG CGC ACA CAC GTC ATT G-3′ [SEQ ID NO: 4]; and TATA-binding protein forward, 5′-TGCACAGGAGCCAAGAGTGAA-3′ [SEQ ID NO: 5] and reverse, 5′-CACATCACAGCTCCCCACCA-3′ [SEQ ID NO: 6].

[4] = tested on: PPARγ; assay: PPARγ-GAL4/pGAL4 transfection and luciferase assay in HT-29 cells; assay type: cell-based
Experimental: as §1, §2

With `COC(=O)[C@@]1(C)CC[C@]2(C)CC[C@]3(C)C(=CC(=O)[C@@H]4[C@@]5(C)C=C(C#N)C(=O)C(C)(C)[C@@H]5CC[C@]43C)[C@@H]2C1` [β-CDODA-Me, Methyl 2-cyano-3,11-dioxo-18β-oleana-1,12-dien-30-oate] the “induced luciferase activity after cotreatment with PPARγ antagonist T007” value ([1]; 1.0, 2.5, 5.0 β-CDODA-Me or 10, 20, 30 μM β-CDODA, 10 μM T007) was “inhibited”, the “maximal induction of luciferase activity (PPARγ activation)” value ([1]; 1-5 μM) was 18 Fold and the KLF4 induction ([2]; SW480, 0.5-7.5 μM) was “induction”. The NAG-1 induction ([2]; SW480, 24 hr) was “not induced”, the “induction of GRP78 protein (ER stress)” value ([2]; SW480, 24 hr) was “not observed” and the “KLF-4 induction after cotreatment with T007” value ([2]; SW480, 24 hr, 10 μM T007) was “blocks this induction response”. The “down regulation of cyclin D1, p27 or PARP cleavage after cotreatment with T007” value ([2]; SW480, 24 hr, 10 μM T007) was “does not affect”, the “PARP cleavage (indicator of apoptosis)” value ([2]; SW480, 24 hr, 0.5-5.0 μM) was “only observed at higher concentrations” and the p27 protein ([2]; SW480, 24 hr, 0.5-5.0 μM) was “dose-dependent increase”. The “Cyclin D1 and p21 protein expression” value ([2]; SW480, 24 hr, 0.5 or 1 μM) was “unchanged”, the “Cyclin D1 and p21 protein expression” value ([2]; SW480, 24 hr, 2.5 and 5.0 μM) was “decreased” and the caveolin-1 protein expression ([2]; SW480, treatment for 3 days) was “did not affect expression of caveolin-1”. The “AR mRNA effects in the presence of cycloheximide (10 μg/ml)” value [3] was “did not modulate”, the “AR mRNA levels after cotreatment with T007” value [3] was “did not affect mRNA levels” and the “AR mRNA levels” value ([3]; 12 and 18 hr) was “decreases AR mRNA levels”. The “PPARγ transactivation (GAL4-PPARγ/GAL4-Luc)” value [4] was “induced transactivation”.
